Measurements taken from patent US6312703A, “Compressed lecithin preparations” (Lecigel, LLC, priority 1999, dated 2001).

Key:
LDL cholesterol = conditions: 60 hypercholesterolemic patients; Gurevich et al.; cited from earlier work
serum cholesterol = assay: Cholesterol lowering in hamsters fed LCP, Lescol or the combination, bled after two weeks; assay type: in vivo, Golden Syrian hamsters; conditions: diet with 2% LCP and/or 0.01% Lescol
Procedure: A study was performed to compare the effects of cholesterol reduction using the 2% LCP alone, 0.01% Lescol (a HMG CoA reductase inhibitor) alone, and a combination of 0.01% Lescol mixed with the phospholipids and extruded to create the LCP. The dosage was administered to Golden Syrian hamsters which were bled after two weeks to determine the cholesterol lowering effects.

| Structure (SMILES) | Lovastatin dose required to reduce LDL cholesterol level to a value of 130 (LDL cholesterol) | HDL (serum cholesterol) | Non HDL (serum cholesterol) | Total Cholesterol (serum cholesterol) |
| --- | --- | --- | --- | --- |
| CC[C@H](C)C(=O)O[C@H]1C[C@@H](C)C=C2C=C[C@H](C)[C@H](CC[C@@H]3C[C@@H](O)CC(=O)O3)[C@H]21 [Lovastatin] | 40 mg/day |  |  |  |
| CC(C)n1c(/C=C/[C@@H](O)C[C@@H](O)CC(=O)O)c(-c2ccc(F)cc2)c2ccccc21 (racemic) [Lescol] |  | 1.77 ± 0.16 | 1.61 ± 0.63 | 3.37 ± 0.67 |
